From ChEMBL document CHEMBL1201862, “PubChem BioAssay data set” (2004)
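Each compound was tested at five concentrations against cells in 96-well plates for 48 hours. GI50 = concentration required for 50% inhibition of growth.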 Calls of active or inactive are those of the source. No stated cut-off is given here; in the data, active = GI50 up to about 1.1 µM and inactive = higher.

Key:
Experiment in all cases: NCI-60 cell line screen, 48 h
[1] = test system: Malme-3M
[2] = test system: HCC 2998
[3] = test system: ACHN
[4] = test system: COLO 205
[5] = test system: SK-MEL-2
[6] = test system: TK-10
[7] = test system: HT-29
[8] = test system: 786-0
[9] = test system: OVCAR-5
[10] = test system: OVCAR-8
[11] = test system: HOP-62
[12] = test system: HL-60
[13] = test system: NCI-H522
[14] = test system: NCI-H23
[15] = test system: NCI-H226
[16] = test system: CCRF-CEM
[17] = test system: OVCAR-4
[18] = test system: A498
[19] = test system: SR

Measured: GI50

Cn1c2ccccc2c2ccc3c(c21)C(=O)C(c1ccccc1)=CC3=O
inactive: [1] 21.9 µM | [2] 24.5 µM | [3] 54.2 µM | [4] 31.1 µM | [5] 22 µM | [6] 43.8 µM | [7] 45.4 µM | [8] 17.1 µM | [9] > 100 µM | [10] 14.9 µM | [11] 13.4 µM | [12] 14.4 µM | [13] 19.2 µM | [14] 22.4 µM | [15] 11.7 µM | [16] 9.62 µM

CC1C(/C=C/c2ccoc2)ON2CCCC12 (centres undefined)
inactive: [17] > 100 µM | [1] 54.2 µM | [2] > 100 µM | [3] > 100 µM | [4] > 100 µM | [5] > 100 µM | [6] > 100 µM | [7] > 100 µM | [8] > 100 µM | [9] > 100 µM | [10] > 100 µM | [11] > 10 µM | [12] > 100 µM | [13] > 100 µM | [14] > 100 µM | [15] > 100 µM

O=C(NNc1ccc([N+](=O)[O-])cc1)C1OC(CO)C(O)C1O (centres undefined)
inactive: [18] > 100 µM | [17] > 100 µM | [1] > 100 µM | [2] > 100 µM | [3] > 100 µM | [4] > 100 µM | [5] > 100 µM | [6] > 100 µM | [7] 59.8 µM | [8] 26.4 µM | [9] > 100 µM | [10] > 100 µM | [11] > 100 µM | [12] 58.9 µM | [14] > 100 µM | [15] > 100 µM | [16] 43.7 µM

CC(=O)Oc1ccc(Nn2c3ccccc3c3ccccc32)c(C)c1
inactive: [1] 28.6 µM | [2] 27.7 µM | [4] 31.7 µM | [19] 21.7 µM | [5] 37 µM | [6] 39.3 µM | [8] 20.6 µM | [9] > 100 µM | [10] 24.3 µM | [11] 36.1 µM | [12] 22.3 µM | [13] 19.3 µM | [14] 38.2 µM | [16] 29.8 µM

CN1c2ccccc2N(C(=O)c2ccc([N+](=O)[O-])cc2)C(CC(=O)O)c2cccn21 (centres undefined)
inactive: [18] > 100 µM | [17] > 100 µM | [1] > 100 µM | [2] > 100 µM | [3] > 100 µM | [4] > 100 µM | [5] > 100 µM | [6] > 100 µM | [7] > 100 µM | [8] > 100 µM | [9] > 100 µM | [10] > 100 µM | [11] > 100 µM | [12] > 100 µM | [13] > 100 µM | [14] > 100 µM | [15] > 100 µM | [16] > 100 µM

NC(CCCCNCc1ccccc1)C(=O)O (centres undefined)
inactive: [18] > 100 µM | [17] > 100 µM | [1] > 100 µM | [2] > 100 µM | [3] > 100 µM | [4] > 100 µM | [5] > 100 µM | [6] > 100 µM | [7] > 100 µM | [8] > 100 µM | [9] > 100 µM | [10] > 100 µM | [11] > 100 µM | [12] > 100 µM | [13] > 100 µM | [14] > 100 µM | [15] > 100 µM | [16] > 100 µM

Cc1ccc(S(=O)(=O)N/N=C(/c2nc3ccc([N+](=O)[O-])cc3nc2O)C(O)c2ccc(C(O)/C(=N\NS(=O)(=O)c3ccc(C)cc3)c3nc4ccc([N+](=O)[O-])cc4nc3O)cc2)cc1 (centres undefined)
inactive: [18] 59 µM | [1] > 100 µM | [2] 28 µM | [3] 28.6 µM | [4] 41.4 µM | [5] 77.6 µM | [6] > 100 µM | [7] 31 µM | [8] > 100 µM | [9] > 100 µM | [10] 92.3 µM | [11] 43.1 µM | [12] 7.82 µM | [13] 3.15 µM | [14] > 100 µM | [16] 13.6 µM

COc1ccc(/C(Cl)=C(\C=O)c2ccc(OC)c(OC)c2)cc1
inactive: [18] 35.9 µM | [1] 17.4 µM | [3] 35.3 µM | [4] > 100 µM | [5] 18.5 µM | [6] 68.2 µM | [7] 29.3 µM | [10] 65.6 µM | [12] 8.85 µM | [13] 9.35 µM | [14] 21.5 µM | [15] 34.1 µM | [16] 21.6 µM

CCOC(=O)C1CCn2c(nc3c(=O)n(C)c(=O)n(C)c32)S1 (centres undefined)
inactive: [17] > 100 µM | [1] > 100 µM | [3] > 100 µM | [19] > 100 µM | [5] > 100 µM | [6] > 100 µM | [7] > 100 µM | [9] > 100 µM | [10] > 100 µM | [11] > 100 µM | [12] > 100 µM | [13] > 100 µM | [14] > 100 µM | [15] > 100 µM | [16] > 100 µM

COC(=O)c1s/c(=N\C(=S)N(C)C)n(-c2ccccc2)c1C(=O)OC
inactive: [18] > 100 µM | [17] 94 µM | [1] > 100 µM | [2] > 100 µM | [3] > 100 µM | [4] > 100 µM | [5] > 100 µM | [6] > 100 µM | [7] 57 µM | [8] > 100 µM | [9] > 100 µM | [10] > 100 µM | [11] > 100 µM | [12] 32.6 µM | [13] > 100 µM | [14] > 100 µM | [15] > 100 µM

CN(C)CCNC(=O)c1cccc2c1nc(-c1cccnc1)c1ccccc12
inactive: [18] 1.61 µM | [17] 4.91 µM | [2] 6.9 µM | [3] 2.58 µM | [4] 4.47 µM | [5] 10.6 µM | [6] 2.25 µM | [7] 3.76 µM | [8] 5.04 µM | [9] 8.83 µM | [10] 4.81 µM | [11] 6.24 µM | [12] 1.97 µM | [14] 4.24 µM | [15] 2.3 µM | [16] 4.29 µM

CCCCCCCCCCCC(=O)C1=C(O)CCC(O)C1=O (centres undefined)
inactive: [18] 16.2 µM | [17] 18.5 µM | [1] 17 µM | [2] 22 µM | [3] 19.4 µM | [4] 15.1 µM | [5] 11.9 µM | [6] 18.4 µM | [7] 15.6 µM | [8] 19.4 µM | [9] 27.7 µM | [10] 10.1 µM | [11] 15.2 µM | [12] 13.5 µM | [13] 12.1 µM | [14] 3.48 µM | [15] 18 µM | [16] 8.18 µM
